# Measurements published in publication PMC11204923, “Marine Cytotoxin Santacruzamate A Derivatives as Potent HDAC1-3 Inhibitors and Their Synergistic Anti-Leukemia Effects with Venetoclax” (Marine Drugs, 2024).
# pIC50: −log10 of the molar value.
# Tests used:
# HDAC7 = target: T1, HDAC7 (Homo sapiens, UniProt Q8WUI4); assay: In vitro HDAC inhibition fluorescence assay, HDAC7; format: biochemical
# T1 construct: purchased BPS Bioscience
# T1 sequence (Q8WUI4 1-952): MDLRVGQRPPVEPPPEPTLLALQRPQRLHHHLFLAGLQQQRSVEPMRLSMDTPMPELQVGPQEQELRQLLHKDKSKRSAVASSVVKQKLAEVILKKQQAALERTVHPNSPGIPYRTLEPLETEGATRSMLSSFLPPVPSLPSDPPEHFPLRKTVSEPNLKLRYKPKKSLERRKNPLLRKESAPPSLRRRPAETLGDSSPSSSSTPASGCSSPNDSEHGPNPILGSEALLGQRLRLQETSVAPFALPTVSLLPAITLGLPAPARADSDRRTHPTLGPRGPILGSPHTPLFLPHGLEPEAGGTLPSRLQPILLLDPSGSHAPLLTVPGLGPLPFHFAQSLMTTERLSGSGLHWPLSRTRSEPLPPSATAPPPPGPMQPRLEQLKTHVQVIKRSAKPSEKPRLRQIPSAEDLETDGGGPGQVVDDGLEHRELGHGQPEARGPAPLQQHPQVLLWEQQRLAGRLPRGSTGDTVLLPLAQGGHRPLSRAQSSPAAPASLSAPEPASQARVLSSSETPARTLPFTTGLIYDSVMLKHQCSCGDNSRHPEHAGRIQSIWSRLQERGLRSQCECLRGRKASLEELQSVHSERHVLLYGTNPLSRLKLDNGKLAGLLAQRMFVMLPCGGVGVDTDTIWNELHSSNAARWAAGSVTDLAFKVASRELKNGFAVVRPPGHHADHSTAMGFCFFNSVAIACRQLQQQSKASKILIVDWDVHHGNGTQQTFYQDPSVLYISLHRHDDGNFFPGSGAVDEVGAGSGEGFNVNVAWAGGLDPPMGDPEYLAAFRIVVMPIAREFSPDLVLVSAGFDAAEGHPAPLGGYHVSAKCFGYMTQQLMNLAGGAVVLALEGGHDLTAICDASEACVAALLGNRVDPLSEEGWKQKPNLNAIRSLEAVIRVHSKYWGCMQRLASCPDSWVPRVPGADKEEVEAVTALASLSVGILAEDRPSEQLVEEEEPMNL
# Method: (§1) All of the HDAC enzymes were purchased from BPS Bioscience. In vitro HDAC inhibition assays were conducted as previously described. In brief, 20 μL of recombinant HDAC enzyme solution (HDAC1-9, 11) was mixed with various concentrations of the tested compound (20 μL). The mixture was incubated at 37 °C for 1 h, and then, 10 μL of fluorogenic substrate (Boc-Lys (acetyl)-AMC for HDAC1, 2, 3 and 6; Boc-Lys (trifluoroacetyl)AMC for HDAC4, 5, 7, 8, 9 and 11) was added to achieve a final concentration of 50 μM. After incubation at 37 °C for 2 h, the catalysis was stopped by the addition of 10 μL of developer containing 30 mg/mL trypsin and 6 μM trichostatin A (TSA). Then, 30 min later, the fluorescence intensity was measured using a microplate reader at excitation and emission wavelengths of 360 and 460 nm, respectively. The inhibition ratios were calculated from the fluorescence intensity readings of tested wells relative to those of control wells, and the IC50 curves and values were determined by GraphPad Prism 6.0, using the “log(inhibitor) vs. normalized response-variable slope” function.
# HDAC5 = target: T2, HDAC5 (Homo sapiens, UniProt Q9UQL6); assay: In vitro HDAC inhibition fluorescence assay, HDAC5; format: biochemical
# T2 construct: purchased BPS Bioscience
# T2 sequence (Q9UQL6 whole entry): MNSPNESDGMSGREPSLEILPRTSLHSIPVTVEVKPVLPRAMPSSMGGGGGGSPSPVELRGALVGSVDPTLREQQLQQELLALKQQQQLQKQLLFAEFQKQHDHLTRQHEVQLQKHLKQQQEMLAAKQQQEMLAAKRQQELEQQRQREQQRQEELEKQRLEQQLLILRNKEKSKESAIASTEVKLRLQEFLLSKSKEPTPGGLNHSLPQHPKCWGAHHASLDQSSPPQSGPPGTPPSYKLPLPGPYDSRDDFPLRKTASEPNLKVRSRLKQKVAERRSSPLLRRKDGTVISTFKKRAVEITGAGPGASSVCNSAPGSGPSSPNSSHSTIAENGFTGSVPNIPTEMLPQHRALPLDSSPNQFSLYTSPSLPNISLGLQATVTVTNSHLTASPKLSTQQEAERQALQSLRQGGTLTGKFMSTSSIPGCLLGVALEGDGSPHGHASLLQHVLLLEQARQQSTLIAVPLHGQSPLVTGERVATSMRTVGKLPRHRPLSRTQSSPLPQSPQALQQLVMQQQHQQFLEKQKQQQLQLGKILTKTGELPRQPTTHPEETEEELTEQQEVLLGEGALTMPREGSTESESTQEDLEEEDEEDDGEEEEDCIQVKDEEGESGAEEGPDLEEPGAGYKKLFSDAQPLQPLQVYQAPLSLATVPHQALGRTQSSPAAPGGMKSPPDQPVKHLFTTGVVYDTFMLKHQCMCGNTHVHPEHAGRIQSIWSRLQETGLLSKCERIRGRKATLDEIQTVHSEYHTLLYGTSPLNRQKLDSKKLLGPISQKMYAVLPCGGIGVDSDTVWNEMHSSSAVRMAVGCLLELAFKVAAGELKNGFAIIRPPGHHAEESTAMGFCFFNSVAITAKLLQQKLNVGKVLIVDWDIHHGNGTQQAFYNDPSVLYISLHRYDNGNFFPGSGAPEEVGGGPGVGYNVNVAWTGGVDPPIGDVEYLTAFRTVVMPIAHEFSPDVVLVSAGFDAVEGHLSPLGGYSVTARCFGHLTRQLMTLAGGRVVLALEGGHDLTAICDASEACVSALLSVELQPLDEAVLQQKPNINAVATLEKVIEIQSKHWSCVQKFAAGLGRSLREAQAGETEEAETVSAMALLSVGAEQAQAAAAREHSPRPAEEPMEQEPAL
# Method: as §1
compound,measurement,setting,value
"CCCNNC(=O)C=Cc1ccc(CNCCc2ccccc2)cc1 [Compound 25c, 3-(4-((Phenethylamino)methyl)phenyl)-N′-propylacrylohydrazide]",pIC50,HDAC7,< 5.00
same,pIC50,HDAC5,< 5.00
